Values of other authors as cited in patent US20260248126A1, “BIOCIDE” (PURGOS APS, priority 2020, published 2026).

Conditions: cited from earlier work

## [Cl-].[Na+] [table salt (NaCl), NaCl]
  LD50 (rat, oral): 3000 mg
